Several values for one entry are separate records, joined by “and”; a condition that tells them apart may be missing. Identical values can stand only once.
Key:
[1] = Cell viability, MTT assay, Jurkat; format: cell-based, human; settings: human, Jurkat E6.1 T-cell leukemia cells, read-out: percentage of cell viability, MTT, Jurkat; for viability at 72 h, 10 µM: at 10 µM; for viability at 72 h, 100 µM: at 100 µM
Method: (§1) Whenever possible, additional concentrations were tested and IC50 values were determined.
(§2) Human leukemia Jurkat E6.1 T-cell line and K562-cell line were originally obtained from ATCC Collections (Manassas, VA, USA); human HT-29 and HCT116 colorectal carcinoma-cell lines were obtained from ECACC (Porton Down, Porton, UK). Cells were passaged for less than 6 months after and routinely tested for mycoplasma contamination using Mycoalert detection kit (Lonza, Basel, Switzerland). Jurkat, K562, and HT-29 cells were maintained in Roswell Park Memorial Institute (RPMI) 1640 with GlutaMAX™, supplemented with 1% antibiotic mixture (100 µg/mL streptomycin and 100 U/mL penicillin) and 10% heat-inactivated foetal bovine serum (FBS) (all from Gibco, Thermo Fisher Scientific, Paisley, UK). HCT116 cells were maintained in Dulbecco’s Modified Eagle Medium (DMEM) with GlutaMAX™, supplemented with 1% antibiotic mixture (100 µg/mL streptomycin and 100 U/mL penicillin) and 10% heat-inactivated FBS (all from Gibco, Thermo Fisher Scientific, Paisley, UK). Incubation was performed at 37 °C in a 5% CO2 atmosphere. Cells were routinely passaged every 2 or 3 days at 70–90% confluence; TrypLE Express (Gibco, Thermo Fisher Scientific, Paisley, UK) was used as dissociation agent for adherent cells. Trypan blue (Gibco, Thermo Fisher Scientific, Paisley, UK) was used to assess cell viability using the dye exclusion test.
(§3) To assess cell viability, the MTT assay was performed. Jurkat/K562/HT-29/HCT116 cell lines were seeded in triplicate (10,000 cells/well) in 96-well plates with 50 µL of complete medium and incubated at 37 °C, 5% CO2 for 24 h to allow the cells to adhere to the plate (in the case of adherent cells). […] Untreated cells seeded in triplicate were used as control. The blank was performed in triplicate with 100 µL of culture medium. The cells were incubated with the compounds, in triplicate, in 100 µL of total volume, at 37 °C, 5% CO2 for 72 h. […] In suspension cells (Jurkat), 25 µL of MTT were directly added to each well and, after 3 h 30 m of incubation, 100 µL of DMSO were added to solubilize the formazan crystals; in adherent cells (HT-29 and HCT116), the culture medium was removed, 25 µL of MTT were added to each well and, after 3 h 30 m of incubation, upon MTT removal, 100 µL of DMSO were added to solubilize the formazan crystals. After 15 min, the samples absorbance was measured at 570 nm and the percentage of cell viability was determined.

[2] = test system: Jurkat cells; experiment: Cell viability, MTT assay, Jurkat; format: cell-based, human; settings: 72 h; for IC50: Homo sapiens, Jurkat, mean ± SD; for percentage of cell viability, MTT, Jurkat: at 100 µM
Method: as §1, §2, §3

[3] = target: T1, 20S proteasome in HT-29 cell lysates, CT-L activity (Homo sapiens, UniProt P28074); experiment: Proteasome inhibition assay in cell lysates, HT-29, CT-L; settings: for inhibition at 10 µM: read-out: percentage of proteasome inhibition, CT-L, cell lysates HT-29, at 10 µM; for inhibition at 100 µM: read-out: percentage of proteasome inhibition, CT-L, cell lysates HT-29, at 100 µM
T1 sequence (P28074 60-263): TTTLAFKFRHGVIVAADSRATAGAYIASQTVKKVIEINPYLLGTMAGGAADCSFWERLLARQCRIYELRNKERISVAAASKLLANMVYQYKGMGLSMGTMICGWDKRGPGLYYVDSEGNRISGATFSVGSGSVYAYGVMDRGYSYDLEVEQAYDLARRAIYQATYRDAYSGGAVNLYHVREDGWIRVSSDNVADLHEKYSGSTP
T1 sequence (P20618 29-241 partner): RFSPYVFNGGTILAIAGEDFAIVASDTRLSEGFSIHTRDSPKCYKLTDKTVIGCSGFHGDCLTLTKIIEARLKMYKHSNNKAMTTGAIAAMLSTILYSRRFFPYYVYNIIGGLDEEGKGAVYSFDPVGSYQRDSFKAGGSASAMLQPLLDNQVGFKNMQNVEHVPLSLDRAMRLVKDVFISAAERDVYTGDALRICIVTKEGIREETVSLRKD
Method: Cells were obtained from several cultured cell lines: Jurkat, K562, HT-29, and HCT116. Pellets with 20 × 10^6 cells were prepared and washed with cold sterile phosphate buffered saline (PBS), 1×, pH 7.4 (Gibco, Thermo Fisher Scientific, Paisley, UK). […] Cells were resuspended in buffer containing 50 mM TRIS-HCl pH 7.4 (Nzytech, Lisboa, Portugal), 5 mM MgCl2 (≥98% purity, Merck, Hamburg, Germany), 1 mM DTT (Merck, Hamburg, Germany), 2 mM ATP (≥98% purity, Enzo Life Sciences Inc., Farmingdale, NY, USA), and 250 mM saccharose (Merck, Hamburg, Germany). Glass beads (Merck, Hamburg, Germany) equivalent to the volume of the cell suspension were added, and the mixture was vortexed for 2 min at 4 °C. Beads and cell debris were removed using 5 min centrifugation at 1000× g and 4 °C, followed by 20 min of centrifugation at 10,000× g at 4 °C. Cell lysates containing proteasomes were resuspended in “activity buffer” [50 mM TRIS-HCl (pH 7.4), 5 mM MgCl2, 1 mM DTT, 2 mM ATP (≥98% purity, Enzo Life Sciences Inc., Farmingdale, NY, USA), and 500 µM EDTA (≥98% purity, Merck, Hamburg, Germany)]. Protein concentration was determined using the Pierce™ BCA protocol (Thermo Fisher Scientific, Rockford, IL, USA). […] DMSO was added in an equal volume as used for the untreated compounds as a way to assess/control its influence in the assay. Untreated cells were used as control. In each well of a 96-well plate, 25 µL of lysate were seeded in duplicate with 25 µL of the compound to test; in the control, 25 µL of activity buffer were added to the 25 µL of lysate. A blank (50 µL of activity buffer) was added to the wells in quadruplicate. Cell lysates, pre-treated or not with different concentrations of the test compounds, were incubated for 30 min at 37 °C. […] Stock solutions (10 mM) of each substrate were prepared in DMSO, diluted in activity buffer, and 50 µL were added to all wells (final concentration of each substrate = 100 µM), followed by an incubation at 37 °C for 60 min. Samples fluorescence was measured at an excitation wavelength of 360 nm and emission of 465 nm; the fluorescence measures were performed using the GloMax-Multi + Detection System (Promega Corp., Madison, WI, USA). Activity was evaluated in fluorescence units, after being converted to percentage of proteasome inhibition and, whenever possible, expressed as IC50 by plotting the inhibition data of each compound at different concentrations against the log of the concentration of the inhibitor, using the GraphPad Prism software version 7. At least eight different concentrations of the test compounds were used.

[4] = target: T2, isolated human 20S proteasome, T-L activity (Homo sapiens, UniProt P49720+Q99436); experiment: Proteasome inhibition assay in isolated human 20S proteasomes (Proteasome-Glo), T-L activity; format: biochemical; settings: for inhibition at 10 µM: read-out: percentage of proteasome inhibition, T-L, isolated 20S proteasome; for percentage of proteasome inhibition, T-L, isolated human 20S proteasome: at 100 µM, Table 1 legend: bortezomib positive control 10 µM; for IC50: mean ± SD
T2 construct: human purified erythrocyte-derived 20S proteasome; purchased Enzo Life Sciences, Inc; host or cells: human erythrocytes (natural source)
From the text: In this assay, the peptide substrates are bound to aminoluciferin (Suc-LLVY-AML for CT-L activity, Z-nLPnLD-AML for C-L, and Z-LRR-AML for T-L), leading the cleavage of these substrates by the proteasome to the release of free aminoluciferin, which is the substrate of the buffer-contained luciferase.
To evaluate human purified erythrocyte-derived 20S proteasome inhibitory activity of the chosen compounds, the Proteasome-Glo™ 3-substrate system (Promega Corporation, Madison, WI, USA) was employed. The Proteasome-Glo™ reagents of the three proteolytic activities were prepared according to the manufacturer’s instructions, aliquoted, and stored at either −20 °C or 4 °C, avoiding freezing–thaw cycles. […] The purified 20S proteasome (Enzo Life Sciences, Inc., Farmingdale, NY, USA) was diluted in HEPES buffer 10 mM, pH 7.4, to a concentration experimentally adjusted to the signal/noise ratio obtained with each particular lot of Proteasome-Glo™ reagent, in order to have a good compromise between sensitivity and linear response. […] All assays were performed in white-walled multiwell plates (Thermo Scientific™ Sterilin™ White Microtiter™ plates, Thermo Fisher Scientific, Paisley, UK) in duplicates. The proteasome solution (25 μL) was added to each well first, then the diluted solutions of the assayed compounds (25 μL), and lastly the Proteasome-Glo™ Reagent (50 μL). […] Reagents were added to the plate well on ice, and the plate was then transferred to the plate luminometer (SpectraMax®, Molecular Devices, LLC, San Jose, CA, USA) set at 37 °C, gently mixed for 30 s, and the measurements were immediately started in kinetic mode, with data collected every 5 min for at least 60 min.
All compounds were dissolved in DMSO at a concentration of 10 mM and stored at −20 °C or 4 °C. Solutions of the test compounds were prepared at their adequate dilutions in 10 mM HEPES buffer pH 7.6 before each experiment.
To calculate the proteasome activity over time, the value of mean relative luminescence units (RLU) of blank wells at each respective time point was subtracted, and then the ratio between mean RLU of the sample and mean RLU of the positive control wells was calculated for each time point and expressed as percentage.

[5] = at 100 µM, Table 2 legend: bortezomib 10 µM
[6] = Table 2 legend: bortezomib 10 µM

IC50 [2] [µM] | percentage of proteasome inhibition, CT-L, cell lysates HT-29 ([3]; at 10 µM) [%] | percentage of proteasome inhibition, CT-L, cell lysates HT-29 [3, 5] | inhibition at 10 µM [4] [%] | percentage of proteasome inhibition, T-L, isolated human 20S proteasome [4] | IC50 [3] [µM] | inhibition at 10 µM [3] [%] | inhibition at 100 µM [3, 6] [%] | IC50 [4] [µM] | Structure (SMILES) | viability at 72 h, 10 µM [1] [%] | viability at 72 h, 100 µM [1] [%] | percentage of cell viability, MTT, Jurkat [2] [%]
0.00648 | 97.99 | 99.37% and 99% | 3.2 | 33.58% and 34% | – | – | – | – | CC(C)C[C@H](NC(=O)[C@H](Cc1ccccc1)NC(=O)c1cnccn1)B(O)O [Bortezomib, bortezomib, reference compound] | 0 | 0 | –
36.8 | – | 62% | 4.43 | 51.65% and 52% | 90.8 | 0 | 62.1 | – | Cc1ccc2ccccc2c1CSc1ncnc2c1ncn2C1OC(CO)C(O)C1O (stereo not shown) [Compound 1] | 98.7 | 21 | 21
– | – | 62% | 0 | 97.00% | 73.8 | 2.11 | 62.2 | 25.8 | O=C1c2ccccc2C(=O)c2c(Nc3ccc(S(=O)(=O)N(CCO)CCO)cc3)ccc(O)c21 [Compound 2] | 80.2 | 77.2 | 77
– | – | 31% | 8.8 | 95.30% and 95% | – | 0 | 31.4 | 27.5 | Cc1ccc(/C(=N/NS(=O)(=O)c2ccc([N+](=O)[O-])cc2)Sc2cc(Cl)c(C)cc2S(N)(=O)=O)cc1 [Compound 3] | 98.1 | 86 | 86
1.37 | – | 98% | 0 | 73.95% and 74% | 31.3 | 10.1 | 97.9 | 48.4 | C#CCCN1CCN(c2ccc(-n3c(=O)ccc4cnc5ccc(-c6ccc(N)nc6)cc5c43)cc2C(F)(F)F)CC1 [Compound 4, 9-(6-Aminopyridin-3-yl)-1-(4-(4-(but-3-yn-1-yl)piperazin-1-yl)-3-(trifluoromethyl)phenyl)benzo[h][1,6]naphthyridin-2(1H)-one] | 23.3 | 0 | –
43.8 | – | 81% | 5.37 | 5.35% and 5% | 84.3 | 0 | 81.2 | – | CC(C)c1nc(CN(C)C(=O)N[C@@H](CCN2CCOCC2)C(=O)N[C@H](CC[C@H](Cc2ccccc2)NC(=O)OCc2cncs2)Cc2ccccc2)cs1 [Compound 5, cobicistat, reference compound] | 93.3 | 0 | –
